{
  "source": "patent US10716959B2",
  "about": "“Polymer-flavonoid conjugates and hydrogels for biomedical applications” (AGENCY FOR SCIENCE, TECHNOLOGY AND RESEARCH, priority 2013, dated 2020)",
  "origin": "cited, not measured here",
  "settings": "physiological temperature and pH",
  "data": [
    {"smiles": "O=C(O[C@@H]1Cc2c(O)cc(O)cc2O[C@@H]1c1cc(O)c(O)c(O)c1)c1cc(O)c(O)c(O)c1", "note": "[EGCG, (−)-epigallocatechin-3-gallate]", "values": [
      {"measurement": "half-life", "result": "less than 30 min"}
    ]}
  ]
}
